This note sets out measurements from patent publication US10875856B2, “CPAP-tubulin module” (UNIVERSITAET ZU KOELN, priority 2015, dated 2020).

pIC50: −log10 of the molar value. “Also recorded” adds a separate entry of the source. Read-outs that look alike come from different tables or passages of the source.

Series [1] concerns CPAP-tubulin interaction. In words: AlphaScreen assay of inhibition of the CPAP-tubulin interaction (normalized AlphaScreen signal; triplicate determination; TruHit kit as counter-control). The series is classed as binding. The source says: FIGS. 1 to 4, 19 and 20 show normalized AlphaScreen signal for conventional tubulin binders Vinblastin (FIG. 1), Paclitaxel (FIG. 2), Docetaxel (FIG. 3) Colchicin (FIG. 4), Bactallin III (FIG. 19) and Taxol (FIG. 20).
Most tubulin-binding agents act on spindle microtubules and thus prevent mitosis nonspecifically.
The Error bars in FIGS. 1 to 16, 19 and 20 indicate data from a triplicate determination. The TruHit Kit captures possible effects on AlphaScreen assay technology.

Series [2] relates to cancer cells. In words: 24 h EdU pulse labeling experiment. The series is classed as cell-based. The following applies: 24 h pulse labeling.
Series [3] relates to Plk-4-inducible MCF10A cells. The series can be described thus: tolerability and cellular toxicity in Plk-4-inducible MCF10A. The series is classed as cell-based, human. The text has this:
Building on Example 1, a proof-of-principle experiment was established in which lentiviral-mediated transduction of constitutive or doxycycline-inducible CPAP^F375A that cannot interact with tubulin (hereafter CPAPΔT) was introduced into non-transformed human mammary epithelial MCF10A cells. These MCF10A cells are engineered to regulate centrosome amplification via doxycycline-inducible overexpression of Polo-Like-Kinase (PLK4). Introducing CPAPΔT prematurely activated Plk4-induced extra-centrosomes in interphase to nucleate microtubules and prevented them from clustering.
Since compound (A) is a tubulin binder, its tolerability and cellular toxicity in comparison to taxol in Plk-4-inducible MCF10A was evaluated.

In series [4] the test system is MDA-MB-231 cells expressing tubulin-GFP. In words: live cell experiments, MDA-MB-231 tubulin-GFP. The format is cell-based.
Series [5] relates to BT549, MDA-MB-231, PC9, H1975T790M, HCC827, POP10 cells. In words: cancer cell proliferation, spectrum of cancer cell lines. The following applies: range over BT549, MDA-MB-231, PC9, H1975T790M. The format is cell-based. The procedure: (§1) To evaluate the effect of compound (A) in cancer cells, a spectrum of breast cancer-(BT549, MDA-MB-231), lung cancer-(TKI-sensitive PC9, TKI-resistant H1975^T790M or HCC827 with C-met amplification) and hepatocellular carcinoma-(POP10) cells was treated with compound (A) for 24 h.
The effects of compound (B) on a spectrum of breast cancer-(BT549, MDA-MB-231),NSCLC-(PC9, TM-resistant H1975T790M, HCC827-GR) and hepatocellular-carcinoma-(POP10)-cells were tested by treatment with compound (B) for 72 hrs.

Series [6] has as its system subcutaneous human prostate tumor cell (PC3) xenografts. The series can be described thus: PC3 xenograft in nude mice. The series is classed as in vivo. The procedure:
To evaluate the anti-tumor activity of compound (A), compound (A) was delivered to nude mice bearing subcutaneous human prostate tumor cell (PC3) xenografts. Compound (A) was administered (10 mg/kg) by oral gavage once per day and the rate of tumor growth was monitored. Compared to vehicle treated controls, it was noticed a reduction in tumor growth rate in compound-(A)-treated mice. Importantly, the anti-tumor activity of compound (A) could be observed as determined by reduced tumor volume with respect to control at day 10.
(§2) To evaluate if compound (B) has anti-tumor activity in vivo, nude mice bearing subcutaneous human prostate (PC3) and breast (MDA-MB-231) tumor xenografts were used.
(§3) In each case, two groups of mice bearing tumor volume >100 mm^3 were used. Compound (B) (10 or 20 mg, Kg-1/day) by oral gavage was delivered. At the end of treatment, we measured the total tumor volume of compound (B)-treated groups and compared with vehicle-treated controls.

Series [7] deals with extra-centrosomes in cancer cells. In words: cell-based assay of centrosome declustering activity. The procedure: as §1
The test system of series [8] is subcutaneous human breast (MDA-MB-231) tumor xenografts. The series can be described thus: MDA-MB-231 xenograft in nude mice. The series is classed as in vivo. The procedure: as §2, §3
For series [9], the system named is CPAP-tubulin interaction in MCF10A cells. In words: immunopurification of CPAP complexes from treated cells. The format is cell-based, human. Conditions: CPAP complexes from cytoplasmic extracts of MCF10A. The procedure: Finally, it was tested if compound (B) could prevent CPAP-tubulin interaction in cells and simultaneously enhance the ability of CPAP to bind its interacting proteins. CPAP complexes from cytoplasmic extracts of compound (B)-treated MCF10A cells were immunopurified.

Series [10] has as its system 3D-organotypic cultures of H1975T790M, HCC827-GR and A549. The series can be described thus: 3D organotypic culture invasion model. The series is classed as cell-based. The text has this:
Further, to test whether preventing CPAP-tubulin interaction could impair cancer cell invasiveness, a three-dimensional (3D) organotypic culture model for cancer cells was adapted that recapitulates many aspects of human epithelial cancer tissue architecture.

Series [11] has as its system two-centrosomes containing cells. The series can be described thus: live imaging for microtubule toxic effect. The series is classed as cell-based. The procedure: Except compound (B), neither of the tested tubulin binders could perturb CPAP-tubulin interaction, enhance PCM recruitment to interphase centrosomes and prevent extra centrosomes from clustering. […] In addition, to rule out the possible microtubule toxic effect of compound (B), live imaging experiments were performed.

Series [12] relates to Cep152, PCNT and CDK5RAP2 recruitment to interphase centrosomes of MCF10A cells. The series can be described thus: PCM protein recruitment to interphase centrosomes (imaging, heat map intensity). The following applies: versus vehicle. The series is classed as cell-based, human. The text has this:
Mechanisms by which compound (B) activates extra centrosomes to nucleate enhanced microtubules were identified. Peri-centriolar material (PCM) recruitment to centrosomes is required for microtubule nucleation.
To test this, we estimated the amounts of Cep152, PCNT and CDK5RAP2 recruitment to interphase centrosomes of compound (B)—treated MCF10A cells.

The nature of series [13]: solubility. The format is physicochemical.
Series [14] in a line: stability. The series is classed as physicochemical.
Series [15] has as its system MCF10A (+Dox, extra centrosomes) and HCC827-GR cells. The series can be described thus: live imaging of extra-centrosome cells. The series is classed as cell-based, human.
Series [16] has as its system H827 cells. In words: cell proliferation with erlotinib, H827. The format is cell-based.
Series [17] deals with A549 cells. The series can be described thus: cell proliferation with erlotinib, A549. The format is cell-based.

The molecule `CCC(CO)Nc1ncc2cc3ccccc3nc2c1C#N` (racemic) [Racemic mixture of compounds C and C‘] showed an IC50 in [1] (values given in µM) of 1.39 µM.

The molecule `N#Cc1c(Cl)ncc2cc3ccccc3nc12` [Compound D] gave an IC50 in series [1] (values in nM) of 0.023 µM.

In turn, `N#Cc1c(NCc2ccccc2)ncc2cc3ccccc3nc12` [Compound E] displayed an IC50 in series [1] (values given in µM) of 1.21 µM. That is a single-digit micromolar value.

Turning to `Nc1n[nH]c2ncc3cc4ccccc4nc3c12` [Compound F], the IC50 in series [1] (values given in µM) is 6.94 µM.

As to `N#Cc1c(Sc2ccccc2)ncc2cc3ccccc3nc12` [Compound G], it took 0.211 µM to reach half-maximal inhibition in series [1] (values in nM) (IC50).

Regarding `N#Cc1c(SCC(=O)Nc2ccccc2)ncc2cc3ccccc3nc12` [Compound I], in series [1] (values given in µM), it took 1.76 µM to reach half-maximal inhibition (IC50). This counts as single-digit micromolar.

Consider `N#Cc1c(N2CCCCCC2)ncc2cc3ccccc3nc12` [Compound J], for which the IC50 in series [1] (values given in µM) is 6.32 µM.

`N#Cc1c(N2CCCCC2)ncc2cc3ccccc3nc12` [Compound L] displayed an IC50 in [1] (values given in µM) of 1.88 µM.

As for `CC(=O)O[C@H]1C(=O)[C@@]2(C)[C@H]([C@H](OC(=O)c3ccccc3)[C@]3(O)C[C@H](OC(=O)[C@H](O)[C@@H](NC(=O)c4ccccc4)c4ccccc4)C(C)=C1C3(C)C)[C@]1(OC(C)=O)CO[C@@H]1C[C@@H]2O` [Paclitaxel, reference compound], the midpoint of inhibition in [1] (values given in µM), the IC50, lay at 52.6 µM. Compared with the last molecule, the IC50 is about 28-fold higher.

`CCCCNc1ncc2cc3ccccc3nc2c1C#N` [compound (A)]: in [2], the “number of cancer cells with EdU incorporation” value is given as “reduced number”. For the same molecule, the “proliferation of MCF10A cells that harbor extra centrosomes” value in series [3] is “specifically inhibited”. Also, the “concentration tolerated without defect in bipolar mitotic spindles” value in series [3] (MCF10A cells with two centrosomes) is “up to 10 μM”. Also, in series [4], the “mitosis and cell fate in live cells” value is “prolonged mitosis with eventual apoptosis”. Besides, the pIC50 in series [5] (HCC827, POP10, treated 24 h) is 5.54 to 6.07. Moreover, the “tumor growth rate versus vehicle” value in series [6] (PC3, 10 mg/kg oral gavage once per day) was “reduction”. Further, the “tumor volume with respect to control” value in series [6] (PC3, 10 mg/kg oral gavage once per day, day 10) was “reduced”. Further, in [7] (BT549 cells, 24 h treatment), the “concentration causing declustering of extra-centrosomes in interphase” value came out at 500 nM.

For the molecule `COc1ncc2cc3ccccc3nc2c1C#N` [compound (B), 3-Methoxybenzo[b][1,6]naphthyridine-4-carbonitrile], the “tumor growth rate versus vehicle” value was “significant reduction” in [8] (MDA-MB-231, 10 or 20 mg/kg/day oral gavage) and “significant reduction” in [6] (PC3, 10 or 20 mg/kg/day oral gavage). Besides, the “tumor volume with respect to control” value is recorded as “reduced” in series [8] (MDA-MB-231, after 31 days) and “reduced” in series [6] (PC3, after 10 days). For the same molecule, the “body weights of treated animals” value is given as “did not change” in [8] (MDA-MB-231 model, 10 or 20 mg/kg/day oral) and “did not change” in series [6] (PC3 model, 10 or 20 mg/kg/day oral). Also, in series [9], the “CPAP-tubulin interaction in cells” value is given as “specifically perturbs”. Further, in [10] (5 μM, H1975T790M, HCC827-GR, A549 organoids), the “prevention of actin-positive invasive protrusions from 3D spheres” value was “sufficient to prevent”. Further, in series [10] (H1975T790M organoids), the “cell death in organoids” value is given as “activated caspase-positive cells”. For the same molecule, in series [10] (treated organoids), the organoid growth entry was “did not grow further from its original size”. In addition, the “concentration not affecting microtubule dynamics, cell cycle progression or mitotic spindle assembly” value in series [11] is on record as “up to 5 μM”. For the same molecule, the “concentration not preventing formation of bipolar mitotic spindles” value in series [11] is given as “up to 8 μM”. The pIC50 in [5] (HCC827-GR, POP10, treated 72 hrs) is 5.54 to 6.07. Besides, the “centrosome declustering activity (preventing extra centrosomes from clustering)” value in series [7] (cancer cells) is listed as “potent; also recorded: prevented clustering of extra centrosomes”. Further, in series [12], the “recruitment of PCM proteins (Cep152, PCNT, CDK5RAP2) to interphase centrosomes” value is listed as “enhanced amounts”. Further, the “solubility relative to compound (A)” value in series [13] is given as “increased”. The “stability relative to compound (A)” value in series [14] is reported as “increased”. For the same molecule, in series [15], the “mitosis and cell fate in live imaging” value is given as “prolonged mitosis with an apparent apoptosis”.

Consider `C#Cc1cccc(Nc2ncnc3cc(OCCOC)c(OCCOC)cc23)c1` [erlotinib], for which the pIC50 in series [16] (H827, combined with 750 nM compound (A), read-out: IC50 of erlotinib in combinatorial treatment) was 7.52; in [16] (H827, single agent, read-out: IC50 of cell proliferation), 5.16; in series [17] (A549, single agent, read-out: IC50 of cell proliferation) it was 5.29; in series [17] (Homo sapiens, A549, A549, addition of 1.5 μM compound (A), read-out: IC50 of erlotinib in combinatorial treatment), 6.30; in [17] (Homo sapiens, A549, A549, single agent, read-out: IC50 of cell proliferation), 5.30. Further, the “prevention of formation of invasive protrusions” value in series [10] (3D organotypic cultures of H1975 and A549) was “not”. For the same molecule, the “centrosome clustering in H827” value in series [7] (H827 cells, erlotinib treatment) was “does not affect centrosome clustering”.

With `CC(=O)O[C@H]1C(=O)[C@@]2(C)[C@H]([C@H](OC(=O)c3ccccc3)[C@]3(O)C[C@H](OC(=O)[C@H](O)[C@@H](NC(=O)c4ccccc4)c4ccccc4)C(C)=C1C3(C)C)[C@]1(OC(C)=O)CO[C@@H]1C[C@@H]2O` [taxol, reference compound], in series [3] (100 nM), the “MCF10A cell proliferation regardless of extra centrosomes” value is “non-selectively prevented”. Besides, the “centrosome clustering in MCF10A” value in series [3] (taxol treatment) is reported as “did not affect centrosome clustering”. Further, the “concentration that collapsed the spindles” value in series [11] is reported as 30 nM.

The term IC50 denotes the concentration needed to halve the response being measured. Low readings indicate higher potency, high ones lower potency.
